Results published in the Kinase Knowledgebase extract (Sharma et al. 2016).
Values after ≈ are worked out from the molar mass of the structure shown.

Molecular target: EGFR (human) (UniProt P00533)
Details: a431

EGFR (human), sequence (P00533 whole entry, looked up): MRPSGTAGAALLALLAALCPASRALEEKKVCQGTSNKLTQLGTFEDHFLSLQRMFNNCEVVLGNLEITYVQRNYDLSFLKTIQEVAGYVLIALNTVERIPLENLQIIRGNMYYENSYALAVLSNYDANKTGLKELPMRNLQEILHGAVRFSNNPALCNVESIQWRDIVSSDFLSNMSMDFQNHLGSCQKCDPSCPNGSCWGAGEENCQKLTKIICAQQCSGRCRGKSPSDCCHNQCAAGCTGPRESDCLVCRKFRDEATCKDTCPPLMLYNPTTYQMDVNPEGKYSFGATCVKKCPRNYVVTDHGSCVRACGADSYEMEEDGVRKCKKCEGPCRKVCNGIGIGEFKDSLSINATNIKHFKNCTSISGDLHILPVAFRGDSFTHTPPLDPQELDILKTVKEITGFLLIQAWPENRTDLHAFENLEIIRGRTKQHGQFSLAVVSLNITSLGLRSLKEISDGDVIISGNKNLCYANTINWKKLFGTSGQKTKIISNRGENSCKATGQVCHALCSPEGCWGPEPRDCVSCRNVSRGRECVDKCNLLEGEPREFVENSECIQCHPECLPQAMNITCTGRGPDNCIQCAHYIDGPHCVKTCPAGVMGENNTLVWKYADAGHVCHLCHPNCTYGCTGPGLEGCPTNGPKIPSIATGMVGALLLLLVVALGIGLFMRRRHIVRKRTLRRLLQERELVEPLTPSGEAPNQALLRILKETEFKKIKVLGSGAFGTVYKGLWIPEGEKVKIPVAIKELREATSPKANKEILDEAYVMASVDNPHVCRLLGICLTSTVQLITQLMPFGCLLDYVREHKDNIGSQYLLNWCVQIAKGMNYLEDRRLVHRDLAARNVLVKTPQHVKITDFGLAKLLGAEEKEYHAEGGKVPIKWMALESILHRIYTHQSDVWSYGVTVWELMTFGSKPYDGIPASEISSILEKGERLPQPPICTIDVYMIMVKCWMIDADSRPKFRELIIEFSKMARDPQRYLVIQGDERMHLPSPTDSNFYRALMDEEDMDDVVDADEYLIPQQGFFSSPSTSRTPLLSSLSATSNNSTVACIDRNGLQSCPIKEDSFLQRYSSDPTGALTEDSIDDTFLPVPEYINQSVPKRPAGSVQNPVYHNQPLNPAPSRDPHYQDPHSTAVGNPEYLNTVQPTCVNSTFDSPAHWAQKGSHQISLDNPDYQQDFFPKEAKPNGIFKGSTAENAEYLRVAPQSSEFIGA

Row | SMILES | IC50 [µg/mL]
1 | COc1cc2ncc(C#N)c(Nc3ccc(-n4ccnc4)c(Cl)c3)c2cc1N | 1.63 (≈ 4.17 µM)
2 | COc1cc2c(Nc3ccc4cn[nH]c4c3)c(C#N)cnc2cc1OCCCN1CCOCC1 | > 5
3 | CCOc1cc2ncc(C#N)c(Nc3ccc(Nc4nnc(C(F)(F)F)s4)c(Cl)c3)c2cc1NC(=O)/C=C/CN(C)C | 0.728 (≈ 1.18 µM)
4 | COc1cc2ncc(C#N)c(Nc3ccc(Sc4nccn4C)c(Cl)c3)c2cc1NC(=O)/C=C/CN(C)C | 0.02 (≈ 0.0365 µM)
5 | COc1cc2ncc(C#N)c(Nc3ccc(N(Cc4cccnc4)C(C)=O)c(Cl)c3)c2cc1NC(C)=O | 3.68 (≈ 7.15 µM)
6 | COc1cc2ncc(C#N)c(Nc3ccc(Sc4nc5ccccc5c(=O)[nH]4)c(Cl)c3)c2cc1[N+](=O)[O-] | 2.28 (≈ 4.29 µM)
7 | CCOc1cc2ncc(C#N)c(Nc3ccc(Sc4nc(-c5ccccc5)cs4)c(C(F)(F)F)c3)c2cc1NC(=O)/C=C/CN(C)C | 0.3 (≈ 0.445 µM)
8 | COc1cc2ncc(C#N)c(Nc3ccc(N(Cc4cccnc4)C(C)=O)c(Cl)c3)c2cc1N | > 5
9 | CCOc1cc2ncc(C#N)c(Nc3ccc(Nc4nnc(C(F)(F)F)s4)c(Cl)c3)c2cc1[N+](=O)[O-] | 1.79 (≈ 3.34 µM)
10 | COc1cc2ncc(C#N)c(Nc3ccc(N(Cc4cccnc4)C(C)=O)c(Cl)c3)c2cc1[N+](=O)[O-] | 1.6 (≈ 3.18 µM)
